Measured values published in patent US6362369B1, “Phthalic acid diamide derivatives fluorine-containing aniline compounds as starting material, agricultural and horticultural insecticides, and a method for application of the insecticides” (Nihon Nohyaku Co., Ltd., priority 1997, dated 2002).

Legend:
Format in all cases: in vivo
[1] = test system: diamondback moth (Plutella xylostella); experiment: Insecticidal effect on diamondback moth (Test Example 1); settings: diamondback moth; mortality judged by criterion of Test Example 1
Summary of the method: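 Triplicate groups of 10 insects: eggs laid on Chinese cabbage seedling by adults, seedling immersed then air-dried, kept at 25° C. Day-6 hatch counts gave mortality, rated by criterion.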

[2] = test system: common cutworm (Spodoptera Litura); experiment: Insecticidal effect on common cutworm (Test Example 2); settings: common cutworm second-instar larvae; cabbage leaf immersed, 500 ppm; eight days after inoculation; 25° C.
Summary of the method: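 Insecticidal effect was rated from percent mortality of second-instar larvae exposed to air-dried treatment at 25° C for 8 days.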

[3] = test system: rice leafroller (Cnaphalocrocis medinalis); experiment: Insecticidal effect on rice leafroller (Test Example 3); settings: rice leafroller third-instar larvae; rice lamina immersed, 500 ppm; four days after inoculation; 25° C., humidity 70%
Summary of the method: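 Insecticidal effect is judged by a predefined criterion from dead/alive counts four days after infesting air-dried lamina with third-instar larvae, kept on moistened filter paper at 25° C, 70% humidity.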

| SMILES | Insecticidal effect, Test Example 1 [1] | Insecticidal effect, Test Example 2 [2] | Insecticidal effect, Test Example 3 [3] |
| --- | --- | --- | --- |
| CCCN(CCC)C(=O)c1c(I)cccc1C(=O)Nc1ccc(C(F)(F)C(F)(F)F)cc1C [compound 1044] | A (100) | A (100) | A (100) |
| C=CCN(CC=C)C(=O)c1c(I)cccc1C(=O)Nc1ccc(C(F)(F)C(F)(F)F)cc1C [compound 1045] | A (100) | A (100) | A (100) |
| CCOCCN(CCOCC)C(=O)c1c(I)cccc1C(=O)Nc1ccc(C(F)(F)C(F)(F)F)cc1C [compound 1046] | A (100) | A (100) | A (100) |
| Cc1cc(OC(F)(F)Br)ccc1NC(=O)c1ccccc1C(=O)NC(C)(C)C [compound 1049] | A (100) | A (100) | A (100) |
| Cc1cc(OC(F)(F)Br)ccc1NC(=O)c1cccc(Cl)c1C(=O)NC(C)(C)C [compound 1050] | A (100) | A (100) | A (100) |
| Cc1cc(OC(F)(F)Br)ccc1NC(=O)c1cccc(I)c1C(=O)NC(C)(C)C [compound 1051] | A (100) | A (100) | A (100) |
| CC(C)(C)NC(=O)c1c(Cl)cccc1C(=O)Nc1ccc(C(O)(C(F)(F)F)C(F)(F)F)cc1 [compound 1053] | A (100) | A (100) | A (100) |
| CC(C)(C)NC(=O)c1c(I)cccc1C(=O)Nc1ccc(C(O)(C(F)(F)F)C(F)(F)F)cc1 [compound 1054] | A (100) | A (100) | A (100) |
| CC(C)NC(=O)c1c(I)cccc1C(=O)Nc1ccc(F)cc1F [compound 1055] | A (100) | A (100) | A (100) |
| CCNC(=O)c1c(I)cccc1C(=O)Nc1ccc(OC(F)(F)C(F)F)cc1C [compound 1056] | A (100) | A (100) | A (100) |
| CCCNC(=O)c1c(I)cccc1C(=O)Nc1ccc(OC(F)(F)C(F)F)cc1C [compound 1058] | A (100) | A (100) | A (100) |
| Cc1cc(OC(F)(F)C(F)F)ccc1NC(=O)c1ccccc1C(=O)NC(C)(C)C [compound 1060] | A (100) | A (100) | A (100) |
| Cc1cc(OC(F)(F)C(F)F)ccc1NC(=O)c1cccc(Cl)c1C(=O)NC(C)(C)C [compound 1061] | A (100) | A (100) | A (100) |
| Cc1cc(OC(F)(F)C(F)F)ccc1NC(=O)c1cccc(I)c1C(=O)NC(C)(C)C [compound 1062] | A (100) | A (100) | A (100) |
| CC(C)(C)NC(=O)c1c(Cl)cccc1C(=O)Nc1ccc2c(c1)OC(F)(F)C(F)(F)O2 [compound 1066] | A (100) | C (89-80) | A (100) |
| CC(C)(C)NC(=O)c1c(I)cccc1C(=O)Nc1ccc2c(c1)OC(F)(F)C(F)(F)O2 [compound 1067] | A (100) | A (100) | A (100) |
| Cc1cc(C(F)(F)C(F)(F)F)ccc1NC(=O)c1cccc(I)c1C(=O)N(C)C [compound 1068] | A (100) | A (100) | A (100) |
